As a reminder, the melting point is the temperature of the solid-liquid transition.

Drawing on the Bradley open melting point set (2014), this text covers melting point for 87 compounds.

Consider `Cc1c(C)c(/C=CC(C)=CC=CC(/C)=CC(=O)O)c(C)cc1OC` [Acitretin], for which the melting point came out at 229 °C.

For `COc1cc(C=O)c([N+](=O)[O-])cc1OC` [6-nitroveratraldehyde], the melting point came out at 133 °C.

Regarding `Cc1cc(Cl)nc(Cl)c1C#N` [2,6-dichloro-3-cyano-4-methylpyridine], the melting point stood at 110 °C.

`CCc1ccc(C)nc1` [5-ethyl-2-methylpyridine] yielded a melting point of -71 °C.

In the case of `c1ccc(OCC2CO2)cc1` (configuration not stated) [glycidyl phenyl ether], the melting point came to 4 °C.

Consider `Nc1ccc(I)cn1` [2-amino-5-iodopyridine], for which the melting point was 128 °C.

Turning to `C=CC1CC=CCC1` (configuration not stated) [4-Vinylcyclohexene], the melting point is -101 °C.

For `Clc1cc(Cl)cc(Br)c1` [1-bromo-3,5-dichlorobenzene], the melting point turned out to be 75 °C.

In turn, `CC(=O)NC1=C(C)CCCC1` [N-(2-methylcyclohex-1-en-1-yl)acetamide] gave a melting point of 90 °C.

As for `COc1ccc(OC)c(C=O)c1` [2,5-dimethoxybenzaldehyde], the melting point was 52 °C.

Turning to `O=C1CC(c2ccccc2)Oc2cc(O)ccc21` (configuration not stated) [7-hydroxyflavanone], the melting point worked out at 188 °C.

On to `CCCC(=O)NNc1ccccc1` [N'-phenylbutanehydrazide], for which the melting point is 104 °C.

`Nc1ccc(N2CCOCC2)cc1` [4-(4-morpholinyl)aniline] registered a melting point of 131 °C.

The compound `CCCSc1ccc2[nH]c(NC(=O)OC)nc2c1` [albendazole] had a melting point of 209 °C.

Take `NS(=O)(=O)c1c(F)cccc1F` [2,6-difluorobenzenesulfonamide]: the melting point came out at 190 °C.

The compound `O=C2/N=C(\Nc1n(cnc12)COCCO)N` [acyclovir] registered a melting point of 257 °C.

In turn, `CCCCP(=O)(CCCC)CCCC` [tri-n-butylphosphine oxide] returned a melting point of 67 °C.

In turn, `O=C(O)c1ccc(N2C(=O)C3ON=C(C(=O)c4ccc(Cl)cc4)C3C2=O)cc1` (configuration not stated) displayed a melting point of 144 °C.

With `O=C(/C=C/c1ccc(-c2ccc([N+](=O)[O-])cc2)o1)c1ccccc1` [(2E)-3-[5-(4-Nitrophenyl)-2-furyl]-1-phenylprop-2-en-1-one], the melting point came to 158 °C.

Consider `CCCCCCC=O` [Heptanal], for which the melting point is -43 °C.

In turn, `O[C@@H]1CCC[C@@H]1O` [(1R,2S)-Cyclopentane-1,2-diol] had a melting point of 32.5 °C.

For `Oc1c(F)c(F)cc(F)c1F` [2,3,5,6-tetrafluorophenol], the melting point came to 29 °C.

`O=C(O)c1ccc(Br)cc1` [p-bromobenzoic acid] yielded a melting point of 252 °C.

`Nc1ccc2ncccc2c1` [6-aminoquinoline] returned a melting point of 117 °C.

The compound `COc1ccc([C@@H]2Sc3ccccc3N(CCN(C)C)C(=O)[C@@H]2OC(C)=O)cc1` [Diltiazem] gave a melting point of 231 °C.

The compound `O=C(C(=O)c1ccccc1)c1ccccc1` [benzil] came in with a melting point of 95 °C.

The compound `O=C(O)c1cc(=O)[nH]c(=O)[nH]1` [orotic acid, anhydrous] came in with a melting point of 346 °C.

Regarding `Clc1cc(Br)ccc1I` [4-bromo-2-chloro-1-iodobenzene], the melting point was 34 °C.

For the compound `O=C(O)Cc1ccccc1OCc1ccccc1` [2-benzyloxyphenylacetic acid], the melting point turned out to be 97 °C.

Turning to `COC(C)(C)OC` [2,2-Dimethoxypropane], the melting point is -47 °C.

For `NC(=O)c1cc(F)ccc1F` [2,5-difluorobenzamide], the melting point came to 112 °C.

As to `CCC(C)(C)c1ccc(O)cc1` [4-tert-pentylphenol], the melting point stood at 89 °C.

As to `CC1(C)OC(=O)C(=Cc2cccc([N+](=O)[O-])c2)C(=O)O1`, the melting point came out at 177 °C.

On to `C1=C(c2ccccc2)Cc2ccccc21` [2-Phenylindene], for which the melting point came out at 167 °C.

As for `O=C(O)CCc1ccc(O)cc1` [Desaminotyrosine], the melting point came out at 130 °C.

On to `Clc1ccc(C(c2ccccc2Cl)C(Cl)(Cl)Cl)cc1` (configuration not stated) [2,4'-DDT], for which the melting point was 75 °C.

Turning to `C1COCCO1` [1,4-dioxane], the melting point was determined as 12 °C.

`Cc1[nH]n(-c2ccccc2)c(=O)c1C(=O)c1ccccc1` [4-benzoyl-3-methyl-1-phenyl-5-pyrazolinone] gave a melting point of 91 °C.

As to `CC(C)NC(C)C` [diisopropylamine], the melting point is -61 °C.

Consider `CN1C(CCl)Nc2cc(Cl)c(S(N)(=O)=O)cc2S1(=O)=O` (configuration not stated) [methyclothiazide], for which the melting point turned out to be 225 °C.

Turning to `O=C(NC1CCC(O)CC1)OCc1ccccc1` (configuration not stated) [4-(benzyloxycarbonylamino)cyclohexanol], the melting point was 163 °C.

For the compound `CCn1c2ccccc2c2ccccc21` [9-Ethyl-9H-carbazole], the melting point stood at 69 °C.

In turn, `Clc1c(Cl)c(Cl)c(Cl)c(Cl)c1Cl` [hexachlorobenzene] registered a melting point of 231 °C.

The compound `N#Cc1coc2ccccc2c1=O` [chromone-3-carbonitrile] returned a melting point of 175 °C.

Compound `COC(CC(C)=O)OC` [acetylacetaldehyde dimethyl acetal] showed a melting point of -83 °C.

`BBBBBBBBBB` [decaborane]: the melting point is 101 °C.

In turn, `CCNc1nc(NC(C)(C)C)nc(SC)n1` [terbutryne] yielded a melting point of 104 °C.

For `c1ccc(NNc2ccccc2)cc1` [hydrazobenzene], the melting point came out at 125 °C.

For the compound `CC(=O)OCC1OC(Oc2ccc(C)cc2)C(OC(C)=O)C(OC(C)=O)C1OC(C)=O` (configuration not stated) [4-methylphenyl 2,3,4,6-tetra-O-acetylhexopyranoside], the melting point was 126 °C.

In turn, `CCOc1cccc(B(O)O)c1` [3-ethoxybenzeneboronic acid] gave a melting point of 144 °C.

`BrCCCBr` [1,3-Dibromopropane] yielded a melting point of -34 °C.

For the compound `O=C(O)c1cnccc1C(F)(F)F` [4-(trifluoromethyl)nicotinic acid], the melting point came out at 148 °C.

Compound `CCCCCCCCCCC` [N-undecane] displayed a melting point of -26 °C.

Consider `C/C(C)=CCN2CC[C@@]1(C)c3cc(O)ccc3C[C@@H]2[C@@H]1C` [pentazocin], for which the melting point stood at 146 °C.

`CCCCCCCCCCCC(=O)OCCCC` [N-butyl dodecanoate] yielded a melting point of -10 °C.

As to `CCC#N` [ethyl_cyanide], the melting point was -93 °C.

For the compound `CC(=O)C1=CC[C@H]2[C@@H]3CC(=O)C4=C[C@@H](O)CC[C@]4(C)[C@H]3CC[C@]12C` [3β-Hydroxypregna-4,16-diene-6,20-dione], the melting point amounted to 169 °C.

`CSC(SC)=C(C#N)C#N` [[Bis(Methylthio)Methylene]Malononitrile] displayed a melting point of 61 °C.

The compound `COP(=S)(OC)Oc1cc(Cl)c(Cl)cc1Cl` [fenchlorphos] yielded a melting point of 35 °C.

`CC1c2ccccc2C(=O)C1c1ccccc1` (configuration not stated) [3-methyl-2-phenyl-2,3-dihydro-1H-inden-1-one] returned a melting point of 85 °C.

`CCOC(=O)c1cnn(-c2ccccc2)c1` [ethyl 1-phenyl-1h-pyrazole-4-carboxylate] returned a melting point of 98 °C.

For the compound `O=C(OC(=O)C(F)(F)F)C(F)(F)F` [Trifluoroacetic anhydride], the melting point is -63 °C.

On to `Cc1ccc(N=Nc2c(O)ccc3ccccc23)c([N+](=O)[O-])c1` [1-[(4-Methyl-2-nitrophenyl)diazenyl]-2-naphthol], for which the melting point came to 271 °C.

`OCC(O)c1ccccc1` (configuration not stated) [styrene glycol] returned a melting point of 68 °C.

Consider `O=C(O)c1c(O)cccc1F` [6-fluorosalicylic acid], for which the melting point was found to be 160 °C.

For `Nc1ncc(Br)cn1` [2-amino-5-bromopyrimidine], the melting point came to 233 °C.

Take `CCCCCC(N)=O` [hexanamide]: the melting point turned out to be 101 °C.

`Nc1c(Br)cccc1Br` [2,6-dibromoaniline]: the melting point is 80 °C.

For `O=C(O)C(F)(F)C(F)(F)C(F)(F)C(F)(F)C(F)(F)C(F)(F)C(F)(F)C(F)(F)C(F)(F)F` [Nonadecafluorodecanoic acid], the melting point came out at 78 °C.

Compound `Cc1cc(Br)c(C)cc1Br` [2,5-dibromo-p-xylene] registered a melting point of 73 °C.

In turn, `N#CCCCCC#N` [1,4-dicyanobutane] registered a melting point of 2 °C.

Compound `CC[C@H]1OC(=O)[C@H](C)[C@@H](O[C@H]2C[C@@](C)(OC)[C@@H](O)[C@H](C)O2)C(C)[C@@H](O[C@@H]2O[C@H](C)C[C@H](N(C)C)[C@H]2O)[C@](C)(O)C[C@@H](C)CN(C)[C@H](C)[C@@H](O)[C@]1(C)O` (some centres not stated) [Azithromycin] gave a melting point of 114 °C.

`CC(C)OP(=O)(CCP(=O)(OC(C)C)OC(C)C)OC(C)C` [tetraisopropyl 1,2-ethylenediphosphonate] registered a melting point of 36 °C.

Compound `OB(O)c1ccc(OC(F)(F)F)cc1` [4-(trifluoromethoxy)benzeneboronic acid] registered a melting point of 123 °C.

In turn, `O=[N+]([O-])c1ccccc1O` [o-nitrophenol] yielded a melting point of 45 °C.

As for `CCOC(=O)CCl` [ethyl chloroacetate], the melting point is -26 °C.

In the case of `ClCC(Cl)CCl` [1,2,3-trichloropropane], the melting point is -14 °C.

For `O=C=N/c1cc(ccc1C)N=C=O` [2,4-Diisocyanato-1-methylbenzene], the melting point stood at 20.5 °C.

`Nc1ccccc1[N+](=O)[O-]` [2-nitroaniline] returned a melting point of 72 °C.

In turn, `Oc1ccc(OCc2ccccc2)cc1` [4-benzyloxyphenol] showed a melting point of 120 °C.

`Cc1cc(Br)ccc1N` [4-bromo-2-methylaniline] gave a melting point of 52 °C.

As for `O=[N+]([O-])c1ccc(Cl)cc1` [4-Chloronitrobenzene], the melting point turned out to be 83.5 °C.

Compound `CC(CCc1oc2c(Br)cc(Br)cc2c1-c1ccc(C)o1)=NO` returned a melting point of 158 °C.

Compound `Cl/C=C/Cl` [(E)-1,2-Dichloroethene] showed a melting point of -50 °C.

`Cc1cc(C(=O)O)ccc1Cl` [4-chloro-3-methylbenzoic acid] returned a melting point of 214 °C.

The compound `O=C(O)c1cc([N+](=O)[O-])cc([N+](=O)[O-])c1` [3,5-Dinitrobenzoic acid] had a melting point of 206 °C.

`C=CCBr` [allyl bromide] registered a melting point of -119 °C.
